Experiments:
[1] = test system: dural inflammation model of migraine; assay: Dural inflammation rat model of migraine; assay type: in vivo; settings: rats, 3 mg/kg p.o., about 15 min pre-IS, measured up to 6 hours post IS
Experimental: These features mimic the characteristic often seen in migraineurs during a headache, especially when treatment is delayed, and the development of central sensitization has occurred (Burstein et al., Ann. Neurol. 47:614-624, 2000; Burstein et al., Brain, 123:1703-1709, 2000). Compound (8) was tested in a dural inflammation model of migraine according to previously described procedures (WO 2007/120830 or as described in US-2008-0031822-A1). Baseline paw withdrawal thresholds were recorded approximately 30 min before the IS administration by application of calibrated von Frey filaments to the hindpaws to measure tactile allodynia. Approximately 15 minutes pre-IS administration, the test compound in water was administered by oral gavage (1 mL/kg) at a dose of 3 mg/kg per os (p.o.). Measurements of tactile allodynia were recorded at 1 hour intervals up to 6 hours post IS administration.

[2] = test system: Carrageenan model of inflammatory pain; assay: Carrageenan model of inflammatory pain; assay type: in vivo, rat; settings: rats
Experimental: Inflammation was induced by injecting 0.1 mL of a 3% carrageenan suspension s.c. into the supplanter aspect of a hindpaw of lightly anesthetized rats. Typically, pronounced inflammation and edema were obvious within three hours of the injection. The carrageenan model is a model of inflammatory pain with two components: the first occurring immediately after injection provides information on the acute nociceptive response to a painful stimulus (in this case, the chemical carrageenan). There is also a second, neurogenic component that develops several hours later and reflects the type of neuronal activity due to the hyperalgesic and allodynic components as found in neuropathic pain. Considerable evidence has shown that NO and its enzymes are involved in the central mechanisms of inflammatory hyperalgesia at the spinal cord level and that peripheral inflammation can upregulate nNOS expression and induce iNOS expression in the spinal cord (Guhring et al., J. Neurosci. 20:6714-6720, 2000; Wu et al., Exp. Brain Res. 118:457-465, 1998; and Wu et al., Pain 94:47-58, 2001).

[3] = target: Recombinant human inducible NOS (iNOS) (Homo sapiens (Human), UniProt P35228); assay: Human iNOS enzyme assay (Protocol 1 or Protocol 2, radiometric); assay type: biochemical
Experimental: The human iNOS assay was carried by either one of the two protocols as described herein:
Recombinant human inducible NOS (iNOS) was produced in Baculovirus-infected Sf9 cells (ALEXIS). In a radiometric method, NO synthase activity was determined by measuring the conversion of [^3H]L-arginine to [^3H]L-citrulline. To measure iNOS, 10 μL of enzyme was added to 100 μL of 100 mM HEPES, pH=7.4, containing 1 mM CaCl2, 1 mM EDTA, 1 mM dithiothreitol, 1 μM FMN, 1 μM FAD, 10 μM tetrahydrobiopterin, 120 μM NADPH, and 100 nM CaM.
To measure enzyme inhibition, a 15 μL solution of a test substance was added to the enzyme assay solution, followed by a pre-incubation time of 15 min at RT. The reaction was initiated by addition of 20 μL L-arginine containing 0.25 μCi of [^3H] arginine/mL and 24 μM L-arginine. The total volume of the reaction mixture was 150 μL in every well. The reactions were carried out at 37° C. for 45 minutes, The reaction was stopped by adding 20 μL of ice-cold buffer containing 100 mM HEPES, 3 mM EGTA, 3 mM EDTA, pH=5.5. [^3H]L-citrulline was separated by DOWEX (ion-exchange resin DOWEX 50 W×8-400, SIGMA) and the DOWEX was removed by spinning at 12,000 g for 10 min in the centrifuge. An aliquot (70 μL) of the supernatant was added to 100 μL of scintillation fluid, and the samples were counted in a liquid scintillation counter (1450 Microbeta Jet, Wallac). Specific NOS activity was reported as the difference between the activity recovered from the test solution and that observed in a control sample containing 240 mM of the inhibitor L-NMMA. All assays were performed at least in duplicate. Standard deviations are 10% or less.
Primary stock solutions of each test compound were prepared in distilled water on the day of study to obtain a final concentration of 6 mM. For the determination of IC50 values, 11 test compound concentrations were prepared as 3-fold serial dilutions. Test compounds were tested in the iNOS assay at a concentration of 1000 μM to 0.0169 μM. The vehicle of the test compound or inhibitor, distilled water, was used as blank control. For non-specific activity, 100 μM L-NMMA was run in parallel as a control.
All incubations were performed in duplicate
The reaction mixture was prepared on ice by the addition of the following components to the appropriate well of a 1.0 mL 96-well polypropylene plate:
10 μL of test compound, reference inhibitor, or control (vehicle or L-NMMA) solution;
25 μL of Reaction Buffer (50 mM Tris-HCl, 6 μM BH4, 2 μM FMN, 2 μM FAD);
5 μL of 10 mM NADPH solution;
5 μL of 1 μM Calmodulin; and
The reaction mixture was pre-incubated at room temperature for 15 minutes. Following this pre-incubation, the reaction was initiated by the addition of 5 μL of the substrate L-arginine (1 μCi of [^3H]-L-Arginine+30 μM of unlabeled L-Arginine) to the reaction mixture. The total reaction volume was 60 μL. The assay plate containing the reaction mixtures was sealed and incubated at 37° C. for 30 minutes. At the end of this incubation period, 400 μL of ice-cold Stop Buffer (the EDTA in the Stop Buffer chelates all of the available calcium) was added to each well to stop the reaction. 100 μL of equilibrated resin pH 5.5 was added to each of the assay wells. The reaction samples were vortexed and transferred to spin cups, after-which they were centrifuged at 13,000 rpm for 30 sec. The spin cups were removed from the holder and […] (containing the unbound L-citrulline) were added to the appropriate wells of a 96-well liquid scintillation plate. 175 μL of scintillation fluid were also added to each well. The plate was sealed, and radioactivity was quantitated using a Microbeta liquid scintillation counter.
Data were analyzed using a Sigmoidal dose-response (variable slope) curve to determine the IC50 value of the test compound. Y=Bottom+(Top−Bottom)/(1+10^((Log IC50−X)*Hill Slope))

- IC50 [3]: 70.6 µM
Structure (SMILES): CNCCN1CCSc2cc(NC(=N)c3cccs3)ccc21 [Compound 8, N-(4-(2-(methylamino)ethyl)-3,4-dihydro-2H-benzo[b][1,4]thiazin-7-yl)thiophene-2-carboximidamide]
- antiallodynic effect (tactile allodynia, hindpaw) [1]: antiallodynic effect
- reversal of mechanical allodynia ([2]; ipsilateral paw, 60, 100, or 200 mg/kg p.o. (FIG. 6)): reversal of mechanical allodynia
- reversal of thermal hyperalgesia (late phase), paw withdrawal latency ([2]; ipsilateral paw, text: i.p. dosing, FIG. 7 legend: 60, 100, or 200 mg/kg p.o.): reversal of thermal hyperalgesia

From patent US8618286B2, “Benzoxazines, benzothiazines, and related compounds having NOS inhibitory activity” (NeurAxon, Inc., priority 2008, dated 2013)
